Measured values: patent US12110510B2, “Functional cortico-spinal-muscle assembled spheroids” (The Board of Trustees of the Leland Stanford Junior …, priority 2018, dated 2024)
“Also recorded” adds a separate entry of the source.

Tests used:
hSpS-hSkM assembloids = details: 405 nm, in the presence of MNI-caged glutamate (3.3 mM)
Protocol: (§1) Generation of hSpS-hSkM or hCS-hSpS-hSkM assembloids. To generate neural-muscle assembloids, 3D hSkM that had been in differentiation medium for at least 10 days (see above) were removed from the silicone wells and placed on top of cell culture inserts (0.4 μm pore size; 353090, Corning) that were positioned in 6-well plates containing 2 ml of DMEM/F12 medium supplemented with 1% Non-Essential Amino Acids (NEAA, Life Technologies), 1% Insulin-Transferrin-Selenium (ITS, Life Technologies), 1% penicillin and streptomycin (Life Technologies), L-Ascorbic Acid (AA; 200 nM, Wako) and cAMP (50 nM, Sigma-Aldrich). Next, spheroids (either hSpS or hCS) were placed on the inserts containing 3D hSkM and arranged so that they were in contact with one another and were allowed to interact.
(§2) Glutamate uncaging and optogenetic stimulation. Intact assembloids were imaged under environmentally controlled conditions (37° C., 5% CO2) using a 5× objective in a confocal microscope (Leica SP8). Assembloids, still in transwells, were incubated in the environmentally controlled chamber for 20-30 minutes before imaging. […] At a frame rate of 14.7 frames/sec, a typical stimulation experiment consisted of 500 frames acquired during pre-stimulation, 5 frames of UV stimulation (in specified region of interest, ROI) and 200 frames acquired during poststimulation. […]

hCS-hSkM assembloid = details: hCS assembled with hSkM, no hSpS
Protocol: as §1, §2

[1] = test system: hCS-hSpS-hSkM assembloids; test: Glutamate uncaging in hCS-hSpS-hSkM assembloids, muscle contraction; assay type: cell-based, human
Protocol: as §1
Glutamate uncaging and optogenetic stimulation. Intact assembloids were imaged under environmentally controlled conditions (37° C., 5% CO2) using a 5× objective in a confocal microscope (Leica SP8). Assembloids, still in transwells, were incubated in the environmentally controlled chamber for 20-30 minutes before imaging. […] At a frame rate of 14.7 frames/sec, a typical stimulation experiment consisted of 500 frames acquired during pre-stimulation, 5 frames of UV stimulation (in specified region of interest, ROI) and 200 frames acquired during poststimulation. For optogenetic stimulation, five pulses of light (625 nm, 68 ms in duration each and ˜68 seconds apart) were delivered using an optical fiber-coupled LED (400 μmdiameter, 13.2 mW; Thorlabs) that was directed towards the hCS.

[2] = test system: hCS-hSpS-hSkM assembloids; test: Optogenetic stimulation of hCS in hCS-hSpS-hSkM assembloids, muscle displacement; assay type: cell-based, human; details: NBQX (50 μM) and APV (50 μM) added together; Chrim-expressing hCS, 625 nm
Description: Glutamate uncaging and optogenetic stimulation.
Contraction analysis. […] The mean covariance per field was plotted.

hSpS [3] = test: Combinatorial growth factor matrix, gene expression of 16 markers at day 20; assay type: cell-based, human
Description: To establish hSpS differentiation conditions, we designed a combinatorial approach, where we used FGF-2, RA, and WNT and SHH modulators at varying concentrations following neural ectoderm specification of early spheroids. […] Briefly, hiPS cell colonies were lifted from plates using the enzyme dispase, moved to ultra-low attachment plates to form spheroids and exposed to dual SMAD inhibition as we have previously described. Starting on day 4 of in vitro differentiation, neural spheroids were exposed to 3 μM of the WNT activator CHIR-99021, and to 20 ng/ml EGF from day 6 onward. Neural spheroids also received a combination of RA (0.01 or 0.1 μM) and FGF-2 (0, 10 or 20 ng/ml) from day 6, and the SHH activator smoothened agonist (SAG; 0, 0.01, 0.1 or 1 μM) from day 11.
For the combinatorial growth factor matrix, small molecules were added on the same days as described above, and the concentrations for dual SMAD inhibitors, CHIR 99021 and EGF were the same as above. From day 7, the neural medium was changed every other day until day 20, when spheres were collected. No DAPT was added for this experiment.
Real-time quantitative PCR (qPCR). For qPCR analysis of spheroids, at least 2-3 spheroids were pooled per sample. mRNA was isolated using the RNeasy Mini kit and RNase-Free DNase set (Qiagen), and template cDNA was prepared by reverse transcription using the SuperScript Ill First-Strand Synthesis SuperMix for qRT-PCR (Life Technologies). qPCR was performed using Sybr Green (Roche) on a ViiA7 machine (Applied Biosystems, Life Technologies).

hSpS [4] = test: Single-cell gene expression of hSpS with or without DAPT (BD Rhapsody); assay type: cell-based, human; details: hSpS differentiated in the presence of DAPT (2.5 μM, days 19, 21, 23) versus hSpS(−)DAPT; day 45
Protocol: To generate hSpS, hiPS cell medium was supplemented with dual SMAD inhibitors until day 5 and the WNT activator CHIR 99021 (3 μM, Selleckchem) from day 4 to day 18. On day 6, spheroids were transferred to neural medium supplemented with RA (0.1 μM, Sigma-Aldrich), EGF (20 ng ml-1; R&D Systems) and FGF-2 (10 ng ml-1; R&D Systems), with addition of the SHH modulator smoothened agonist (SAG, 0.1 μM, Millipore) from day 11. From day 7, the medium was changed every other day. […] For hSpS, the Notch inhibitor DAPT (2.5 μM, STEMCELL technologies) was added on days 19, 21 and 23. From day 43 onwards, the medium was changed every four to five days.
Single-cell gene expression (BD Rhapsody system). […] Cell labels and molecular indices were identified, and gene identity was determined by alignment against the gencode comprehensive hg19 reference. […] Gene expression profiles of 4,175 and 3,173 cells were recovered for hSpS with or without DAPT, respectively, with an average number of reads of ˜17,000, ˜2,400 molecules and ˜1,400 number of genes detected per cell with average molecular index coverage (that is, the number of times a molecule was sequenced) of 4.8. […]

hSC [5] = test: Gene expression analysis (qPCR) of neuronal subtype markers in hSC or hSC+D; assay type: cell-based, human; details: DAPT+ condition (2.5 μM) versus hSC; day 30
Protocol: (§3) From day 4 in suspension, cultures were supplemented with the GSK-3 inhibitor CHIR 99021 (3 μM). On day 6, spheroids were transferred to neural medium containing neurobasal-A, B-27 supplement without vitamin A, GlutaMax (1:100), penicillin and streptomycin, and supplemented with retinoic acid (RA, 100 nM), EGF (20 ng/ml) and FGF-2 (10 ng/ml). On day 11 of differentiation spheroids were supplemented with the SHH pathway agonist Smoothened Agonist (SAG, 100 nM), in addition to the compounds described above. From day 7 onwards, media was changed every other day. For the hSC+D condition, spheroids received the gamma-secretase inhibitor DAPT (2.5 μM) on days 19, 21 and 23. From day 19, once the initial fate specification stage is finalized, hSCs were transferred to neural medium containing neurobasal-A, B-27 supplement without vitamin A, N−2 supplement, GlutaMax (1:100), penicillin and streptomycin (1:100), and supplemented with BDNF (20 ng/ml), IGF (10 ng/ml), L-Ascorbic Acid (AA, 200 nM) and cAMP (62.5 nM).

hSC [6] = test: Immunocytochemistry of hSC cytoarchitecture; assay type: cell-based, human; details: DAPT+ hSC condition; day 45
Protocol: as §3

hCS-hSC-hSkM assembloid = test: Glutamate uncaging in hCS-hSC-hSkM assembled spheroids (Example 1), hSkM contraction; details: tubocurarine 100 μM
Description: For cortico-spinal-muscle assembled spheroids, hCS-hSC assembled spheroids were placed on tissue culture inserts and positioned so that hSC was in contact with the 3D hSkM constructs. Media was changed every other day.
The FRAP module of the Leica SP8 confocal microscope was used to uncage glutamate using UV light.

[7] = test system: hSpS-limb assembloids (mouse limb buds); test: Contraction of hSpS-limb assembloids; assay type: cell-based; details: curare 100 μM; 14 days after fusion
Protocol: Co-culture of mouse limb and spheroids. For mouse co-culture experiments, timed-pregnant females were sacrificed at E11.5, embryos were collected, and limb buds dissected (both forelimbs and hindlimbs were used for this experiment). Limbs and spheroids (at D25) were then assembled together by placing them in close proximity in a 1.5 ml microcentrifuge tube for 3 days in an incubator. One limb and one spheroid were placed per tube. On day 2 medium was carefully changed. Neural medium supplemented with N−2 supplement (Life Technologies, 17502048) was used. After assembly, mouse-spheroid cultures were placed in 24-well ultralow-attachment plates (Corning), and medium was changed every other day. For contraction quantification, assembloids were visualized using brightfield illumination in an EVOS FL Cell Imaging System (Life Technologies), and they were deemed to be contracting if they moved within a time-window of 30 seconds. Approval for mouse experiments was obtained from the Stanford University's Administrative Panel on Laboratory Animal Care (APLAC).

hSkM = hSkM calcium imaging (Cal-590 AM) in 2D co-culture with hSpS; assay type: cell-based, human; details: curare 100 μM; 2D hSkM co-cultured with hSpS; 2-minute period
Protocol: hSkM calcium imaging. For calcium imaging co-culture experiments, hSkM were plated on 24-well plates as described above and differentiated with Skeletal Muscle Cell Differentiation Medium. After 6-7 days of exposure to differentiation medium, hSkM were co-cultured with hSpS or hCS. […] One hSpS or hCS were placed per well. hSkM-spheroid co-cultures were left undisturbed for two days, and half medium was carefully replaced every other day thereafter. Calcium imaging was performed after 6-7 days of co-culture. Cultures were incubated with Cal-590 AM (10 μM, AAT Bioquest) and PowerLoad (1:100, Invitrogen) for 30 minutes at 37° C., washed once for 10 minutes with full medium and then imaged. A Leica SP8 confocal microscope with a resonant scanner was used for imaging. Spontaneous calcium activity was recorded for 2 min (10 frames per second) in 6-9 fields per well, and for each field the distance from the spheroid was measured.
Calcium imaging. Calcium imaging data was processed using ImageJ (Fiji) and custom MATLAB routines. […] A total number of 798 (hSkM condition), 652 (hCS+hSkM condition), 1006 (hSpS+hSkM condition) and 727 (hSpS+hSkM+curare condition) hSkM fibers were analyzed. Following ROI registration, raw time-series movies were transformed to relative changes in fluorescence: dF/F(t)=(F(t)−F0)/F0, where F0 represented the 5th percentile value of the time series of each ROI. […]

COc1ccc([N+](=O)[O-])c2c1CCN2C(=O)CC[C@H](N)C(=O)O [MNI-caged glutamate, MNI-caged-L-glutamate]
hSkM contraction upon photostimulation of hSpS (hSpS-hSkM assembloids): resulted in hSkM contraction
Response to glutamate uncaging of hCS (hCS-hSkM assembloid): did not elicit a response
Muscle contraction upon uncaging in hCS ([1]; 405 nm uncaging on hCS): robust muscle contraction
hSkM contraction upon stimulation of hSpS ([1]; 405 nm uncaging on hSpS): coupled with hSkM contraction

N[C@@H](CCCP(=O)(O)O)C(=O)O [APV]
Light induced responses (muscle displacement/contraction) upon hCS optogenetic stimulation [2]: completely abolished

FGF-2: growth factor FGF-2 (R&D Systems)
Rostro-caudal fate (HOXA2 expression pattern) (hSpS [3]; high levels of RA and low levels of FGF-2): more rostral fates
Rostro-caudal fate (HOXC9 expression) (hSpS [3]; low levels of RA and high levels of FGF-2): more caudal fates

C[C@H](NC(=O)Cc1cc(F)cc(F)c1)C(=O)N[C@H](C(=O)OC(C)(C)C)c1ccccc1 [DAPT]
Increase in the proportion of motor neurons (hSpS [4]): approximately three-fold
Expression of some interneuron markers (GATA3, EN1, EVX1) (hSC [5]): lower expression
Expression of the MN markers ISL1 and HB9 (hSC [5]): higher expression
Cytoarchitecture of hSC (position of cell bodies and axons) (hSC [6]): cell bodies were found on the inside of the spheroid, while axons were found on the outside of hSC

COc1cc2c3cc1Oc1cc(ccc1O)C[C@@H]1c4c(cc(OC)c(O)c4Oc4ccc(cc4)C[C@@H]3N(C)CC2)CC[N+]1(C)C [curare, (+)-tubocurarine chloride pentahydrate]
hSkM contraction after glutamate uncaging on hSC (hCS-hSC-hSkM assembloid): blocked
Contraction activity in hSpS-limb assembloids [7]: completely blocked
Muscle contraction upon glutamate uncaging in hCS ([1]; 100 μm curare): blocked; also recorded: stops
Increase in proportion of active hSkM (spontaneous calcium activity) in hSpS-hSkM (hSkM): blocked

CNC1CCC(N(Cc2cccc(-c3ccncc3)c2)C(=O)c2sc3ccccc3c2Cl)CC1 (centres unmarked) [SAG]
Expression of ventral progenitor marker genes OLIG2, NKX6-1, FOXA2 and post-mitotic markers CHX10 and ISL1 (hSpS [3]; high SAG exposure): higher expression

NBQX
Light induced responses (muscle displacement/contraction) upon hCS optogenetic stimulation [2]: completely abolished
